In paper PMC7129073 (Clinical Microbiology and Infection, 2015):
≈ marks a conversion by molar mass, not a printed value.

Legend:
S. aureus [1] = experiment: Methicillin resistance, PBSCT patients; type: cell-based, Staphylococcus aureus
CoNS = experiment: Methicillin resistance, PBSCT patients; type: cell-based, Coagulase-negative Staphylococcus
Staphylococcus aureus [2] = experiment: EARSS Ireland, invasive isolates; type: cell-based; settings: Jan'99–Jun'04, 4786 isolates
S. aureus [3] = experiment: Italian survey of severe infections 2003, MIC; type: cell-based, Staphylococcus aureus
S. epidermidis = experiment: Italian survey of severe infections 2003, MIC; type: cell-based, Staphylococcus epidermidis
Staphylococcus aureus [4] = experiment: Broth microdilution and E-test, diabetic foot ulcers; type: cell-based; settings: 81 isolates
[5] = tested on: Staphylococcus epidermidis; experiment: as above; type: cell-based; settings: 53 isolates
Shigella spp. = experiment: Disk diffusion, stool isolates Tehran; type: cell-based; settings: 96 isolates
S. pneumoniae [6] = type: cell-based, Streptococcus pneumoniae
H. influenzae = type: cell-based, Haemophilus influenzae
Acinetobacter = experiment: Disk diffusion; type: cell-based; settings: 37 isolates selected as resistant to beta-lactams
F. necrophorum = experiment: E-test, 13 clinical isolates; type: cell-based, Fusobacterium necrophorum; settings: for MIC50 / MIC90: Fusobacterium necrophorum
Pseudomonas spp. = experiment: MIC; type: cell-based
S. marcescens = experiment: Italian survey of severe infections 2003, MIC; type: cell-based, Serratia marcescens
M. morganii = experiment: Italian survey of severe infections 2003, MIC; type: cell-based, Morganella morganii
P. stuartii [7] = experiment: Italian survey of severe infections 2003, MIC; type: cell-based, Providencia stuartii
S. pneumoniae [8] = experiment: MIC of invasive strains, Saint George Hospital 2001–2004; type: cell-based, Streptococcus pneumoniae
Escherichia coli (ECO) = experiment: Broth microdilution; type: cell-based; settings: 2001
nontyphoidal Salmonella = experiment: Agar dilution, isolates from chickens 1998–2004; type: cell-based, Salmonella spp.; settings: Salmonella
E. coli [9] = experiment: E-test susceptibility; type: cell-based, Escherichia coli
K. pneumoniae [10] = experiment: E-test susceptibility; type: cell-based, Klebsiella pneumoniae
[11] = tested on: Pseudomonas aeruginosa (PSA); experiment: Vitek 2 susceptibility, urine isolates of children; type: cell-based; settings: both departments
K. pneumoniae [12] = experiment: MIC; type: cell-based, Klebsiella pneumoniae
[13] = tested on: viridans group streptococci (VGS); experiment: MIC; type: cell-based
P. aeruginosa = type: cell-based, Pseudomonas aeruginosa
N. farcinica strain = experiment: E-test on Mueller-Hinton agar; type: cell-based; settings: Nocardia farcinica
Nocardia spp. [14] = experiment: E-test on Mueller Hinton agar, 81 clinical isolates; type: cell-based; settings: Nocardia
Nocardia spp. [15] = experiment: Time-kill at peak-serum concentrations, seven strains; type: cell-based; settings: of seven strains; 24, 72 h
[16] = tested on: inducible Enterobacteriaceae; experiment: SMART 2003, intraabdominal isolates; type: cell-based
Enterobacteriaceae = experiment: SMART 2003 Europe, microdilution; type: cell-based; settings: 1948 isolates
E. coli [17] = experiment: SMART 2003 Europe, microdilution; type: cell-based, Escherichia coli; settings: 1106 isolates
Klebsiella = experiment: SMART 2003 Europe, microdilution; type: cell-based, Klebsiella spp.; settings: 341 isolates
P.aeruginosa = experiment: Italian survey of severe infections 2003, MIC; type: cell-based, Pseudomonas aeruginosa
A. baumannii = experiment: Italian survey of severe infections 2003, MIC; type: cell-based, Acinetobacter baumannii
B.cepacia = experiment: Italian survey of severe infections 2003, MIC; type: cell-based, Burkholderia cepacia
K. oxytoca = experiment: E-test susceptibility; type: cell-based, Klebsiella oxytoca
Enterobacter spp = experiment: E-test susceptibility; type: cell-based
Gram-negative rods = experiment: Microscan MIC, blood culture isolates; type: cell-based
PSA = settings: background statement, no reference given; cited from earlier work
[18] = tested on: P. aeruginosa strains from CF sputa; experiment: O-serotyping; type: cell-based, Pseudomonas aeruginosa; settings: exposure to 1/2–1/16 MIC (ceftazidime) or 1/2–1/8 MIC (ciprofloxacin)
Escherichia coli = experiment: Vitek 2 susceptibility, urine isolates of children; type: cell-based
[19] = tested on: S. typhimurium (strain SL1344); experiment: Cell envelope proteome; type: cell-based, Salmonella typhimurium; settings: 31.2 ng/ml; control 296 ± 77; mean + 1 SD
S. pneumoniae (SPN) = experiment: NCCLS broth microdilution, fluoroquinolones 1999–2004; type: cell-based, Streptococcus pneumoniae; settings: Streptococcus pneumoniae, read-out: MIC90 during the six years, 1999–2004
[20] = tested on: Pseudomonas aeruginosa (PA); experiment: MIC; type: cell-based
qnrA = qnrA transcription in E. coli transconjugants after quinolone induction; type: cell-based, Escherichia coli; settings: 0.4 × MIC
[21] = tested on: S. enterica serotype Typhimurium; experiment: Susceptibility testing of CipR strains from children and exotic pets; type: cell-based; settings: Salmonella enterica
S. pneumoniae [22] = experiment: Broth microdilution; type: cell-based, Streptococcus pneumoniae; settings: 275 isolates
S. aureus [23] = experiment: NCCLS broth microdilution, SSTI isolates; type: cell-based; settings: Staphylococcus aureus
P. stuartii [24] = experiment: E-test MIC and mutant prevention concentration, qnr transconjugand and mutants; settings: Providencia stuartii
[25] = ICU, SRGA breakpoints, tigecycline tentative S ≤2 μg/ml

## COc1cccc(OC)c1C(=O)N[C@@H]1C(=O)N2[C@@H]1SC(C)(C)[C@@H]2C(=O)O [methicillin]
S. aureus [1]
  resistance: 47.4%
CoNS
  resistance: 86.5%
Staphylococcus aureus [2]
  resistant isolates: 41.4%
S. aureus [3]
  resistance: 37.1%
S. epidermidis
  resistance: 86.7%
Staphylococcus aureus [4]
  resistant isolates: 27.2%
[5]
  resistant isolates: 35.8%

## CO/N=C(\C(=O)N[C@@H]1C(=O)N2C(C(=O)O)=C(COC(C)=O)CS[C@H]12)c1csc(N)n1 [cefotaxime]
Shigella spp.
  sensitive: 100%
S. pneumoniae [6]
  resistant: 0%
H. influenzae
  resistant: 0%
Acinetobacter
  resistant isolates: 75.7%
F. necrophorum
  MIC range: 0.016 to 256 µg/mL
  MIC50: 0.016 µg/mL (≈ 0.0351 µM)
  MIC90: 0.064 µg/mL (≈ 0.141 µM)
Pseudomonas spp.
  resistant strains: 90%
S. marcescens
  resistance: 13.2%
M. morganii
  resistance: 14,3%
P. stuartii [7]
  resistance: 84.5%
S. pneumoniae [8]
  % S: 95.2%
  %R: 4.8%
Escherichia coli (ECO); NAL-resistant isolates
  susceptible: 89.9%
Escherichia coli (ECO); NAL-susceptible isolates
  susceptible: 99.2%
Nontyphoidal Salmonella; read-out: MIC 50/90
  MIC50: 0.12 to 0.25 µg/mL (≈ 0.263 to 0.549 µM)
E. coli [9]; [25]
  Susceptible isolates: 98%
E. coli [9]; non ICU
  Susceptible isolates: 99%
K. pneumoniae [10]; ICU
  Susceptible isolates: 98%
K. pneumoniae [10]; non ICU
  Susceptible isolates: 100%

## C[C@@H](O)[C@H]1C(=O)N2C(C(=O)O)=C(SCCN=CN)C[C@H]12 [imipenem]
[11]
  Susceptible isolates: 74-100%
K. pneumoniae [12]; Klebsiella pneumoniae
  MIC: 1 to 8 µg/mL (≈ 3.34 to 26.7 µM)
[13]
  MIC50: 0.015 µg/mL (≈ 0.0501 µM)
  MIC90: 0.12 µg/mL (≈ 0.401 µM)
H. influenzae
  resistant: 0%
P. aeruginosa
  resistant: 42%
N. farcinica strain
  MIC: > 32 µg/mL
Nocardia spp. [14]
  MIC50: 0.5 µg/mL (≈ 1.67 µM)
  MIC90: 2 µg/mL (≈ 6.68 µM)
Acinetobacter
  resistant isolates: 0.0%
Nocardia spp. [15]
  strains with bactericidal activity (≥3 log10 cfu/ml decrease): 4 strains
F. necrophorum
  MIC range: 0.004 to 32 µg/mL
  MIC50: 1.5 µg/mL (≈ 5.01 µM)
  MIC90: > 32 µg/mL
[16]; A/P (N = 200)
  % susceptible: 99%
[16]; EU (N = 354)
  % susceptible: 98%
[16]; LA (N=113)
  % susceptible: 98%
[16]; NA (N = 163)
  % susceptible: 98%
Enterobacteriaceae
  per cent susceptible: >99%
E. coli [17]
  per cent susceptible: 100%
Klebsiella
  per cent susceptible: 99%
P.aeruginosa
  resistance: 11.9%
A. baumannii
  resistance: 22.5%
B.cepacia
  resistance: 71.4%
S. pneumoniae [8]
  % S: 100%
  %R: 0%
E. coli [9]; [25]
  Susceptible isolates: 99%
E. coli [9]; non ICU
  Susceptible isolates: 100%
K. pneumoniae [10]; ICU
  Susceptible isolates: 100%
K. pneumoniae [10]; non ICU
  Susceptible isolates: 99%
K. oxytoca; ICU
  Susceptible isolates: 100/100%
K. oxytoca; non ICU
  Susceptible isolates: 100/100%
Enterobacter spp; ICU
  Susceptible isolates: 96%
Enterobacter spp; non ICU
  Susceptible isolates: 98%
Gram-negative rods
  susceptible strains (n/N): 15/16
PSA
  MIC50: 1 µg/mL (≈ 3.34 µM)

## O=C(O)c1cn(C2CC2)c2cc(N3CCNCC3)c(F)cc2c1=O [ciprofloxacin]
[18]
  change of agglutination type of nine monoagglutinable strains: five out of nine strains
Escherichia coli; paediatric surgical unit (PSU)
  susceptibility rate: 96%
Escherichia coli; paediatric units (PU)
  susceptibility rate: 100%
[19]
  number of proteins detected in 2D gels: 153 ± 36
K. pneumoniae [12]; BSAC
  susceptibility category: resistant
Shigella spp.
  sensitive: 100%
H. influenzae
  intermediate susceptible: 2.4%
S. pneumoniae (SPN)
  MIC90: 2 µg/mL (≈ 6.04 µM)
[20]
  isolates with MPC ≤ 2 μg/ml: 79%
[20]; 10 billion organisms on agar
  MPC range: 1 to 4 µg/mL
[20]; patients P1 and P2
  MIC range: 0.031 to 1 µg/mL
qnrA; transconjugant from 1960
  increase of qnrA transcription over baseline: 2.6 times
qnrA; transconjugant from N5
  increase of qnrA transcription over baseline: 5.1 times
qnrA; transconjugant from UAB1
  increase of qnrA transcription over baseline: 4.3 times
Enterobacteriaceae
  per cent susceptible: 84%
E. coli [17]
  per cent susceptible: 80%
[21]
  MIC: ≥ 16 µg/mL
S. pneumoniae [22]
  Susceptibility: 94.5%
Nontyphoidal Salmonella
  MIC90: ~0.25 µg/mL (≈ 0.754 µM)
S. aureus [23]
  MIC50: 0.25 µg/mL (≈ 0.754 µM)
P. stuartii [24]; ATCC29914, P. stuartii ATCC 29914 RifR
  MIC: 0.03 µg/mL (≈ 0.0905 µM)
P. stuartii [24]; ATCC29914, mutants of ATCC 29914 RifR, SCV, median
  MIC: 3 µg/mL (≈ 9.05 µM)
P. stuartii [24]; TCPs 123 (qnr-positive transconjugand)
  MIC: 0.5 µg/mL (≈ 1.51 µM)
P. stuartii [24]; mutants of TCPs 123, SCV, median
  MIC: > 32 µg/mL
P. stuartii [24]; mutants of TCPs 123, normal colony size, median
  MIC: 6 µg/mL (≈ 18.1 µM)
